The results in this text go back to article PMC3592886, “Utilization of Quantitative In Vivo Pharmacology Approaches to Assess Combination Effects of Everolimus and Irinotecan in Mouse Xenograft Models of Colorectal Cancer” (PLoS ONE, 2013).

Each structure is given as a SMILES string.

The test system of one assay is HCT8 cells. Description: Sulforhodamine B (SRB) anti-proliferation assay, HCT8. The assay is classed as cell-based. The note with it: RAD (20 nM), SN38 (4 nM) or the combination of the two, Figure 2. On the procedure:
Cytoxic effects were determined using the sulforhodamine B (SRB) assay. Briefly, 5000 viable cells were plated into 96-well plates and incubated overnight prior to exposure with different concentrations of drugs. Cells were exposed to increasing concentrations of everolimus (0–200 nM), SN38 (0–8 nM), and combinations of the two. Following a 72 hour incubation, media was removed and cells were fixed with cold 10% trichloroacetic acid for 30 minutes at 4° C. Cells were washed with water and stained with 0.4% SRB for 30 minutes at room temperature. Cells were washed again with 1% acetic acid and stain was solubilized with 10 mM tris at room temperature and read at an OD of 565 nm. […] The resulting Combination Index (CI) was used as a quantitative measure of the degree of interaction between different drugs. A CI value equal to 1 denotes additivity; CI greater than 1, antagonism; CI less than 1, synergism.

The subject of the next assay is HCT116 cells. Kind of assay: In vitro metabolomics, HCT116 cells. It is filed as cell-based. The note with it: 24 and 96 hours exposure to 30nM RAD001. The protocol: (§1) Metabolomics was performed in vitro on HCT116
(§2) (KRAS mt; PIK3CA mt) and HT29 (BRAF mt;
(§3) PIK3CA mt) cells after 0 (control), 24 and 96 hours exposure to 30nM RAD001. In both cell lines after 24 and 96 hours glucose uptake was reduced showing a decrease in proliferation. […]

A further assay has as its system HT29 tumors. Description: NMR-based metabolomics of HT29 tumors. The assay is classed as in vivo, mice. The note with it: end of study. The protocol: When HT29 and HCT116 tumors reached an average volume of ∼325 mm^3 animals were randomized into four treatment groups (n = 9–10 mice per group): (i) vehicles, (ii) 5 mg/kg everolimus (RAD) by oral gavage (PO) daily, (iii) 10 mg/kg irinotecan (IRI) once weekly by intravenous (iv) tail vein injection, and (iv) a combination of RAD and IRI. Everolimus, diluted in sterile water, and irinotecan, diluted in sterile 0.9% saline, were administered at 4 mL/kg. Animals were treated for 28 days. Tumor volumes and body weights were measured 2–3 times weekly. On day 28 of treatment 3–6 animals per group were sacrificed, approximately 24 hours following everolimus treatment, and tumors harvested for metabolomic analysis.
For metabolomic analysis, animals were fasted for 4 hours then received 250 mg/kg of [1-^13C] glucose (Cambridge Isotopes, Cambridge, MA) by IV injection 60 minutes prior to tumor harvesting. Snap-frozen tumor specimens underwent two-phase acid extraction procedure (using 8% perchloric acid) previously established and extensively published [19]–[22]. Further details may also be found in Supplement S1 (section SA.2.).

A further assay relates to HT29 cells. Kind of assay: In vitro metabolomics, HT29 cells. It is filed as cell-based. The conditions noted are these: 24 and 96 hours exposure to 30nM RAD001. The protocol:
as §1, §2, §3

`CO[C@H]1C[C@@H]2CC[C@@H](C)[C@@](O)(O2)C(=O)C(=O)N2CCCC[C@H]2C(=O)O[C@H]([C@H](C)C[C@@H]2CC[C@@H](OCCO)[C@H](OC)C2)CC(=O)[C@H](C)/C=C(\C)[C@@H](O)[C@@H](OC)C(=O)[C@H](C)C[C@H](C)/C=C/C=C/C=C/1C` [Everolimus, 40-O-(2-hydroxyethyl)-rapamycin]: the “%Growth Inhibition” value with HCT8 cells is given as 59%. Also, the glucose uptake result in the assay with HCT116 cells and in the assay with HT29 cells was “reduced” throughout. In the assay with HT29 tumors, the “effects on glucose metabolism” value is “decrease in lactate and glycolysis”.
